In patent US4918174A, “Tiacumicin compounds” (Abbott Laboratories, priority 1986, dated 1990):
≈ marks a conversion by molar mass, not a printed value. Read-outs that look alike come from different tables or passages of the source.

Key:
[1] = test system: Streptococcus pyogenes 930; assay: Minimal Inhibitory Concentrations against common test organisms; format: cell-based
[2] = test system: Micrococcus luteus 4698; assay: as above; format: cell-based
[3] = test system: Staphylococcus epidermidis 3519; assay: as above; format: cell-based
[4] = test system: Micrococcus luteus 9341; assay: as above; format: cell-based
[5] = solubility; format: physicochemical
[6] = test system: Staphylococcus aureus ATCC 6538; assay: Minimal Inhibitory Concentrations against common test organisms; format: cell-based
[7] = test system: Pseudomonas aeruginosa A-5007; assay: as above; format: cell-based; details: A5007
[8] = test system: Gram-positive bacteria; assay: antibiotic activity against Gram-positive bacteria in vitro; format: cell-based; details: including strains resistant to currently used therapeutic antibiotics
[9] = test system: Streptococcus faecium ATCC 8043; assay: Minimal Inhibitory Concentrations against common test organisms; format: cell-based; details: Enterococcus faecium, ATCC8043
[10] = test system: Bacteroides fragilis 784; assay: as above; format: cell-based
[11] = test system: Propionibacterium acnes 132; assay: as above; format: cell-based; details: Cutibacterium acnes
[12] = test system: Candida albicans ATCC 10231; assay: as above; format: cell-based; details: ATCC10231
[13] = test system: Esherichia coli Juhl; assay: as above; format: cell-based
[14] = ATCC6538, Staphylococcus aureus ATCC 6538, read-out: Minimal Inhibitory Concentrations

In the case of `CCC1CC=C(C)C=C(C)C(OC2OC(C)(C)C(OC(C)=O)C(O)C2O)C(CC)C=C(C)C(O)CC=CC=C(C)C(=O)O1` (centres unmarked) [Tiacumicin A], the MIC [1] is reported as 100 µg/mL (≈ 165 µM), the MIC [2] is reported as 0.39 µg/mL (≈ 0.645 µM) and the MIC [3] is reported as 100 µg/mL (≈ 165 µM). The MIC [4] was 0.1 µg/mL (≈ 0.165 µM), the solubility in acetone ([5]; acetone) was “sparingly soluble” and the solubility in acetonitrile [5] was “sparingly soluble”. For the same compound, the solubility in benzene [5] was “readily soluble”, the solubility in chloroform [5] was “readily soluble” and the solubility in methanol [5] was “readily soluble”. The solubility in water [5] was “insoluble” and the MIC [6, 14] was 100 µg/mL (≈ 165 µM).

For `CCc1c(Cl)c(O)c(Cl)c(O)c1C(=O)OC1C(C)OC(OCC2=CC=CCC(O)C(C)=CC(CC)C(OC3OC(C)(C)C(OC(=O)C(C)C)C(O)C3O)C(C)=CC(C)=CCC(C(C)O)OC2=O)C(OC)C1O` (centres unmarked) [Tiacumicin B], the MIC [1] was 12.5 µg/mL (≈ 11.8 µM), the MIC [7] was > 100 µg/mL and the “antibiotic activity against a number of Gram-positive bacteria” value [8] was “possessed antibiotic activity”. The MIC [3] was 12.5 µg/mL (≈ 11.8 µM), the MIC [9] was 12.5 µg/mL (≈ 11.8 µM) and the MIC [10] was > 100 µg/mL. The MIC [11] was 6.25 µg/mL (≈ 5.91 µM), the MIC [12] was > 100 µg/mL and the MIC [4] was 0.1 µg/mL (≈ 0.0945 µM). For the same compound, the MIC [13] was > 100 µg/mL, the solubility in acetonitrile [5] was “readily soluble” and the solubility in benzene [5] was “sparingly soluble”. The solubility in chloroform [5] was “sparingly soluble”, the solubility in ether [5] was “sparingly soluble” and the solubility in hexane [5] was “insoluble”. The solubility in methanol [5] was “readily soluble”, the solubility in water [5] was “insoluble” and the MIC ([6]; Staphylococcus aureus, ATCC6538, read-out: Minimal Inhibitory Concentrations) was 12.5 µg/mL (≈ 11.8 µM).

For `CCc1c(Cl)c(O)c(Cl)c(O)c1C(=O)OC1C(C)OC(OCC2=CC=CCC(O)C(C)=CC(CC)C(OC3OC(C)(C)C(O)C(O)C3OC(=O)C(C)C)C(C)=CC(C)=CCC(C(C)O)OC2=O)C(OC)C1O` (centres unmarked) [Tiacumicin C], the MIC [1] was 25 µg/mL (≈ 23.6 µM), the MIC [7] was > 100 µg/mL and the “antibiotic activity against a number of Gram-positive bacteria” value [8] was “possessed antibiotic activity”. For the same compound, the MIC [3] was 25 µg/mL (≈ 23.6 µM), the MIC [9] was 100 µg/mL (≈ 94.5 µM) and the MIC [12] was > 100 µg/mL. For the same compound, the MIC [4] was ≤ 0.39 µg/mL, the MIC [13] was > 100 µg/mL and the solubility in acetonitrile [5] was “readily soluble”. For the same compound, the solubility in benzene [5] was “sparingly soluble”, the solubility in chloroform [5] was “sparingly soluble” and the solubility in ether [5] was “sparingly soluble”. The solubility in hexane [5] was “insoluble”, the solubility in methanol [5] was “readily soluble” and the solubility in water [5] was “insoluble”. It also gave an MIC [6, 14] of 50 µg/mL (≈ 47.3 µM).

With `CCc1c(Cl)c(O)c(Cl)c(O)c1C(=O)OC1C(O)C(C)OC(OCC2=CC=CCC(O)C(C)=CC(CC)C(OC3OC(C)(C)C(O)C(O)C3OC(=O)C(C)C)C(C)=CC(C)=CCC(C(C)O)OC2=O)C1OC` (centres unmarked) [Tiacumicin D] the MIC [1] was > 25 µg/mL, the MIC [7] was > 25 µg/mL and the MIC [3] was > 25 µg/mL. For the same compound, the MIC [9] was > 25 µg/mL, the MIC [4] was 0.2 µg/mL (≈ 0.189 µM) and the MIC [13] was > 25 µg/mL. The solubility in acetonitrile [5] was “readily soluble”, the solubility in benzene [5] was “sparingly soluble” and the solubility in chloroform [5] was “sparingly soluble”. The solubility in ether [5] was “sparingly soluble”, the solubility in hexane [5] was “insoluble” and the solubility in methanol [5] was “readily soluble”. For the same compound, the solubility in water [5] was “insoluble” and the MIC [6, 14] was > 25 µg/mL.

With `CCC(=O)OC1C(OC2C(C)=CC(C)=CCC(C(C)O)OC(=O)C(COC3OC(C)C(OC(=O)c4c(O)c(Cl)c(O)c(Cl)c4CC)C(O)C3OC)=CC=CCC(O)C(C)=CC2CC)OC(C)(C)C(O)C1O` (centres unmarked) [Tiacumicin E] the MIC [1] was 50 µg/mL (≈ 47.9 µM), the MIC [7] was > 100 µg/mL and the MIC [3] was 12.5 µg/mL (≈ 12 µM). For the same compound, the MIC [9] was 12.5 µg/mL (≈ 12 µM), the MIC [13] was > 100 µg/mL and the solubility in acetonitrile [5] was “readily soluble”. The solubility in benzene [5] was “sparingly soluble”, the solubility in chloroform [5] was “sparingly soluble” and the solubility in ether [5] was “sparingly soluble”. For the same compound, the solubility in hexane [5] was “insoluble”, the solubility in methanol [5] was “readily soluble” and the solubility in water [5] was “insoluble”. It also gave an MIC [6, 14] of 2.5 µg/mL (≈ 2.39 µM).

With `CCc1c(Cl)c(O)c(Cl)c(O)c1C(=O)OC1C(C)OC(OCC2=CC=CCC(O)C(C)=CC(CC)C(OC3OC(C)(C)C(O)C(OC(=O)C(C)C)C3O)C(C)=CC(C)=CCC(C(C)O)OC2=O)C(OC)C1O` (centres unmarked) [Tiacumicin F] the MIC [1] was 12.5 µg/mL (≈ 11.8 µM), the MIC [7] was > 100 µg/mL and the MIC [3] was 12.5 µg/mL (≈ 11.8 µM). The MIC [9] was 6.2 µg/mL (≈ 5.86 µM), the MIC [4] was 6.2 µg/mL (≈ 5.86 µM) and the MIC [13] was > 100 µg/mL. For the same compound, the solubility in acetonitrile [5] was “readily soluble”, the solubility in benzene [5] was “sparingly soluble” and the solubility in chloroform [5] was “sparingly soluble”. For the same compound, the solubility in ether [5] was “sparingly soluble”, the solubility in hexane [5] was “insoluble” and the solubility in methanol [5] was “readily soluble”. The solubility in water [5] was “insoluble” and the MIC [6, 14] was 12.5 µg/mL (≈ 11.8 µM).
